# From patent US10059699B2, “Tetrahydroquinoline derivatives as bromodomain inhibitors” (GlaxoSmithKline Intellectual Property (No.2) Limited, priority 2014, dated 2018)
# Where two headings read alike, the source gives them in different places. Marks after values point to notes of the source that are not given here.
# Assays:
# [1] = biological target: hERG (Homo sapiens, UniProt Q12809); assay: hERG liability
# [2] = system: biphenotypic B myelomonocytic leukaemia cells (MV-4-11); assay: Cancer cell line proliferation assay, MV-4-11; format: cell-based; settings: Homo sapiens, MV4-11, MV-4-11 cells, 72 hours, CellTiter Glo, n = 3
# Method: The impact of the compound of Examples 7 and 14 on cancer cell proliferation was determined using patient derived NUT midline carcinoma cells (11060), multiple myeloma cells (OPM-2, DSMZ) and biphenotypic B myelomonocytic leukaemia cells (MV-4-11, ATCC) in a 72 hour proliferation assay. 11060 and OPM-2 cells were maintained in RPMI 1640 medium (Invitrogen) supplemented with 10% HI-FBS (Heat-Inactivated Fetal Bovine Serum, Hyclone) and 2 mM L-glutamine (Invitrogen) at 37° C. and an atmosphere of 5% CO2. MV-4-11 cells were maintained in IMDM media supplemented with 10% HI-FCS, 2 mM L-glutamine, 1× Non-essential amino acids (Invitrogen) and 1× sodium pyruvate (1 mM) (Invitrogen). Cells were diluted to 1.11×10^5 cells/mL and 90 μL/well plated into black sided, clear bottomed 96 well tissue culture plates (Corning), using growth media supplemented with penicillin/streptomycin (Invitrogen). Cells were incubated overnight at 37° C. and in one plate, ATP levels were measured using the CellTiter Glo assay (Promega) according to the manufacturer's instructions, to give a baseline reading (t=0). 3-fold serial dilutions of compounds ranging from 6 mM to 0.3 μM were prepared in 100% DMSO. The DMSO dilution series was diluted 20-fold in growth media before 10 μl of the resulting dilutions were added to the appropriate wells of the remaining cell plates. The final compound concentrations in the wells ranged from 30 μM to 1.5 nM in 0.5% DMSO. Cells were incubated with compounds for 72 hours before assaying for ATP content using CellTiter Glo (t=72). CellTiter Glo data from each t=72 time point was normalised to the relevant t=0 time point data, and expressed as % t=0.
# [3] = system: interleukin-6 (IL-6); assay: LPS induced IL-6 production mouse assay; format: in vivo; settings: male CD1 mice; for IL-6 Cmax: LPS iv 1 hour after dosing
# Method: The compound was assayed for its ability to inhibit lipopolysaccharide (LPS) induced interleukin-6 (IL-6) production in mice. Male CD1 mice (Charles River Laboratories, 5 per group) received an intravenous challenge of LPS (100 μg/kg, L3192 E coli 0127:B8) 1 hour after oral administration of compound (in 1% (w/v) methylcellulose, aq 400). Serial blood samples were collected via teil vein up to 4 hours or via cardiac puncture at 6 hours (terminal sample) post oral drug administration and the serum harvested from the blood samples was frozen at −80° C. On the day of analysis, the serum was thawed to room temperature and levels of IL-6 were measured using single-spot cytokine assay plates (K152QXD) from Meso Scale Discovery (MSD, Gaithersburg, Md.). The levels of IL-6 were detected according to the manufacturer's protocol (MSD) and read on a SECTOR imager 6000 (MSD). The mean IL-6 Cmax and AUC0-t values were generated using WinNonlin Phoenix version 6.3 and the mean percent Cmax and AUC0-t IL-6 reduction following treatment with compound was calculated compared to the corresponding vehicle treated group. Levels of significance were calculated by analysis of variance (ANOVA) followed by Dunnett's multiple comparison t-test using Graphpad Prism version 5.04 (Graphpad Software, San Diego, Calif.). Statistical differences were determined as *P<0.05, **P<0.01.
# [4] = system: TNFα; assay: LPS induced secretion of TNFα from whole blood; format: cell-based; settings: human whole blood, LPS 200 ng/mL, n=4; read-out: pIC50, LPS induced TNFα secretion (converted)
# Text: Activation in whole blood of predominantly monocytic cells by agonists of toll-like receptors such as bacterial lipopolysaccharide (LPS) results in production of key inflammatory mediators, including TNFα. Such pathways are widely considered to be central to the pathophysiology of a range of auto-immune and inflammatory disorders.
# Human Whole Blood from 2 donors (n=2) is collected using Sodium heparin as anti-coagulent (Wockhardt cat# FP1712) (10 units of heparin/mL of blood). Compounds were prepared as [10 mM] DMSO stocks and then diluted such that the top starting concentration was [1.4 mM] followed by 8×3-fold dilutions in DMSO. Final assay concentrations start at [10 μM] for all compounds. 1 μL diluted compound was added per well in a 96-well U bottom plate. 1 μL DMSO only was added to column 10 (+ve control) and 1-((2S,4R)-2-methyl-4-(phenylamino)-6-(4-(piperidin-1-ylmethyl)phenyl)-3,4-dihydroquinolin-1(2H)-yl)ethanone (for a preparation see Compound 28, J. Med. Chem. 2014, 57, 8111-8131, 1 μL, 1.4 mM) added to column 11 (−ve control). […] 150 μL of 2×MSD Read Buffer T (stock 4×MSD Read Buffer T was diluted 50:50 with de-ionised water) was then added to each well and the plates read on the MSD Sector Imager 6000. Concentration response curves for each compound were generated from the data using internal XC50 analysis and an IC50 value was calculated.
# [5] = biological target: cytochrome P450 3A4 (Homo sapiens, UniProt P08684); assay: Cytochrome P450 3A4 metabolism dependent inhibition; format: in vitro ADME
# Chain of cytochrome P450 3A4 (P08684 whole entry): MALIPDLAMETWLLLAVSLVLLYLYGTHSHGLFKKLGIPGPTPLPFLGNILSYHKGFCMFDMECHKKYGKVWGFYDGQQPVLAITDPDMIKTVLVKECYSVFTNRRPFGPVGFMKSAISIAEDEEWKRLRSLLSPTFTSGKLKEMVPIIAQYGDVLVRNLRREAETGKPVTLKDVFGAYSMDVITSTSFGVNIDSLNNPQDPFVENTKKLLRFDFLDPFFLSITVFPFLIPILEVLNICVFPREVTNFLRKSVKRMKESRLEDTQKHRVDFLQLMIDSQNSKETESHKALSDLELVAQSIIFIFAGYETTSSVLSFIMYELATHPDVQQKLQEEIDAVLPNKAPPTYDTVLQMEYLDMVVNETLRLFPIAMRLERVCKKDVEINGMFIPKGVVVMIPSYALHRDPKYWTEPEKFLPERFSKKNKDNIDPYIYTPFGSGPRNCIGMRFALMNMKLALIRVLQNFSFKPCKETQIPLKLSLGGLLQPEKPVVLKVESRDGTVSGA
# Chain of hERG (Q12809 whole entry): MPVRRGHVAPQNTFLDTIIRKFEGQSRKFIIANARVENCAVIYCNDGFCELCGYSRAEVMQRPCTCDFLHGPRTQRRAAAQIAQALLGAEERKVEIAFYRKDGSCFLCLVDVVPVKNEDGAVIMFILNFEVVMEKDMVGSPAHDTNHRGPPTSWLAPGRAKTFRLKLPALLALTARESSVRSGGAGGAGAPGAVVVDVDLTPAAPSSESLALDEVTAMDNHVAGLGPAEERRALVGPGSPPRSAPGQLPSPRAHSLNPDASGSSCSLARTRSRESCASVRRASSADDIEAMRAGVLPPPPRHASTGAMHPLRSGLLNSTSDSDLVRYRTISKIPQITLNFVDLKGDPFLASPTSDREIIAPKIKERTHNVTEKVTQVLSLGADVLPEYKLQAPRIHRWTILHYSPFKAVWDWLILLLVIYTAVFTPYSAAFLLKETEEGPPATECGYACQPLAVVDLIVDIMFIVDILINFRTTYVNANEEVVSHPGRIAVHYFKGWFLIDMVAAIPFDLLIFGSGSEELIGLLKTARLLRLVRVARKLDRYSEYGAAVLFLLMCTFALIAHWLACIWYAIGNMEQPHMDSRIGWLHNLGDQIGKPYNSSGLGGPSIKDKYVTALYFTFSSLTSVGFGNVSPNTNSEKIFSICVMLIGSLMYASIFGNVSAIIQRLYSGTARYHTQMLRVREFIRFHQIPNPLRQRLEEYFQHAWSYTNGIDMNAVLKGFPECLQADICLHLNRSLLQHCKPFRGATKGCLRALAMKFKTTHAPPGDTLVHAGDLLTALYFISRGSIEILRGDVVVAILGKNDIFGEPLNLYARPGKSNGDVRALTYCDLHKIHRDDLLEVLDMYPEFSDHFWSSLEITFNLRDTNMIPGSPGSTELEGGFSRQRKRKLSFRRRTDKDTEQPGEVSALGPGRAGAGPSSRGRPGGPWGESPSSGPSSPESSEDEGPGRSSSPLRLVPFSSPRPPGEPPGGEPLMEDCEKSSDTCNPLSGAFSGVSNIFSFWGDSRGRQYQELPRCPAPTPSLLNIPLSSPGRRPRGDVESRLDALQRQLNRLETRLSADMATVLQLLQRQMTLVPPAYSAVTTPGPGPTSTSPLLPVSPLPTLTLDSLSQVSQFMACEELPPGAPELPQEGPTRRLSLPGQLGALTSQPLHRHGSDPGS
compound,measurement,setting,value
"CC(=O)N1c2ccc(C(N)=O)cc2[C@H](Nc2ncc(Cl)cn2)C[C@@H]1C [Example 14, (2S,4R)-1-acetyl-4-((5-chloropyrimidin-2-yl)amino)-2-methyl-1,2,3,4-tetrahydroquinoline-6-carboxamide]",hERG liability,[1],no hERG liability
same,IC50,"[2]; full curve fit, read-out: Cellular Proliferation: pIC50 (converted)",316 nM
same,IC50,[2]; read-out: Cellular Proliferation: gpIC50 (converted),251 nM
same,% reduction in IL-6 AUC from vehicle,[3]; 1 mg/kg oral,49* %
same,% reduction in IL-6 Cmax from vehicle,[3]; 1 mg/kg oral,58%
same,IL-6 AUC0-t,[3]; 1 mg/kg oral,554 ng·h/mL
same,IL-6 Cmax,[3]; 1 mg/kg oral,291 ng/mL
same,% reduction in IL-6 AUC from vehicle,[3]; 3 mg/kg oral,55** %
same,% reduction in IL-6 Cmax from vehicle,[3]; 3 mg/kg oral,48%
same,IL-6 AUC0-t,[3]; 3 mg/kg oral,495 ng·h/mL
same,IL-6 Cmax,[3]; 3 mg/kg oral,357 ng/mL
same,% reduction in IL-6 AUC from vehicle,[3]; 10 mg/kg oral,48* %
same,% reduction in IL-6 Cmax from vehicle,[3]; 10 mg/kg oral,62* %
same,IL-6 AUC0-t,[3]; 10 mg/kg oral,563 ng·h/mL
same,IL-6 Cmax,[3]; 10 mg/kg oral,258 ng/mL
same,IC50,[4],63.1 nM
same,cytochrome P450 3A4 metabolism dependent inhibition,[5],no cytochrome P450 3A4 metabolism dependent inhibition
